Measurements taken from publication PMC8896685 (PLoS ONE, 2022).
pEC50, pIC50: −log10 of the molar value. Numbered stars: 1 amine (or outer) side, 2 acyl side, 3 side chain; on linkers, the order of the positions; unused ones are H or OH. Square brackets hold non-standard residues; d marks the D form. Side chains are listed from the residue outwards. Peptide text beside a SMILES is read from it. * marks the point of attachment. C18 diacid = O=C(O)CCCCCCCCCCCCCCCCC(=O)*; γGlu = O=C(O)[C@H](CCC(=O)[*:2])N[*:1]; Desaminohistidyl = O=C(CCc1c[nH]cn1)*; Ac4c = NC1(C(=O)O)CCC1; AEEA = NCCOCCOCC(=O)O; Aib = CC(C)(N)C(=O)O

Columns and labels:
DIO rats = assay: Subchronic effect on body weight, body composition and food intake in DIO rats; assay type: in vivo, rat; details: three weeks; for Weight loss: 3 nmol/kg each compound s.c. once daily; for Cumulative food intake: 3 nmol/kg s.c. once daily
Text: Male C57Bl/6J mice were purchased from Jackson Lab (Bar Harbour, ME) or Taconic, (Denmark). Male Sprague Dawley rats were purchased from Taconic (Denmark). Lean animals were fed regular chow diet (Altromin 1324, Brogaarden, Denmark). Obese animals were fed a high-fat diet, 45% kcal from fat (D12492, Research Diets, New Brunswick, NJ) from the age of 4–6 weeks in order to obtain a diet induced obese (DIO) phenotype. Animals were housed under temperature and humidity-controlled conditions in a 12:12 hr light:dark cycle (lights on at 6 a.m.). Rats were housed three per cage during high fat feeding and were single housed five weeks prior to study. Mice were single housed, two per cage, with a partitioning wall where possible. All animals had ad libitum access to diet and water, except when fasted prior to experimental procedures. Animals were acclimatized to study conditions (energy expenditure cages, daily mock handling etc) at least one week prior to first dose. […] At the time of study, animals were 20–30 weeks old with a body weight of 45–50 g (DIO mice) or approximately 600 g (DIO rats). […] Oral glucose tolerance was evaluated on study day 15, 5 h post-dosing (at Cmax). Animals were fasted for 5 h prior to oral administration of glucose (3 g/kg). […] Conscious animals were MR-scanned prior to initiation of treatment and at the end of the treatment period.

Rat GLP-1R = target: T1, Rat GLP-1R (Rattus norvegicus, UniProt P32301); assay: Receptor potency, CRE-luciferase functional assay in BHK cells; assay type: cell-based; details: Rat receptors, whole BHK cells, 0% plasma, 3 h 37°C, value (95% CI)
T1 construct: a plasmid encoding either the glucagon receptor or the GLP-1 receptor from the relevant species; expressed in transfected cells
T1 sequence (P32301 22-463): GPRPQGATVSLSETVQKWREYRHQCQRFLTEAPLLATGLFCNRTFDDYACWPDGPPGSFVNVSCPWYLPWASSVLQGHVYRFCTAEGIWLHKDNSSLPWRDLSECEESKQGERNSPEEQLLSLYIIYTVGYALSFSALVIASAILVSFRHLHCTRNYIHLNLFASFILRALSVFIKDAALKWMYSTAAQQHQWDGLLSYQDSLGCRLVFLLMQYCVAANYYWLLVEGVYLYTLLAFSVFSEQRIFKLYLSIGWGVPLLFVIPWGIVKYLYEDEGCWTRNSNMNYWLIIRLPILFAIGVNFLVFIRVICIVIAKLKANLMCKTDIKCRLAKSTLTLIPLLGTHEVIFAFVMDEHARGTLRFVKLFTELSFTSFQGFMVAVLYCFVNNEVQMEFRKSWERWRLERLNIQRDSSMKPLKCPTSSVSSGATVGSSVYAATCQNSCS
Procedure: (§1) The binding assay was performed on cell membranes in the presence of 1% (v/v) species-specific heparin-treated pooled plasma (Bioreclamation IVT, Westbury, NY) diluted in assay buffer (50 mM HEPES supplemented with 5 mM EGTA, 5 mM MgCl2, and 0.005% (v/v) Tween 20, pH7.4). […] Cells stably expressing an individual receptor of interest were grown at 5% CO2, 37°C in DMEM (supplemented with 10% FCS, 0.5 mg/ml G418 and 0.3 mg/ml hygromycin). Membrane preparations were made from cells harvested at approximately 80% confluence, washed and homogenized in 20 mM HEPES with 0.1 mM EDTA, pH 7.4. Protein concentration was determined, and the membranes were stored at -80°C until use. The membrane binding assay was performed in a 96-well OptiPlate (PerkinElmer) in a total volume of 200 μl. Test compounds were dissolved in 80% DMSO and further diluted in assay buffer. 50 μl of diluted plasma was added to the assay plate wells followed by addition of test compounds (25 μl), cell membranes (50 μl, 0.06 mg/ml), SPA beads (20 mg/ml in assay buffer) and radioligand (60,000 cpm/well, corresponding to 0.06 nM; 2200 Ci/mmol. Each assay plate was incubated for 2 h at 30°C, centrifuged at 1500 rpm for 10 minutes and counted in a TopCount NXT instrument (PerkinElmer).
(§2) Functional assays were performed on whole cells in the absence or presence of 100% species-specific heparin-treated pooled plasma (Bioreclamation IVT). […] The cells were cultured with DMEM (supplemented with GlutaMAX, 10% FBS, 0.5 mg/ml G418 and 0.3 mg/ml hygromycin) at 5% CO2 and 37°C. At approximately 80–90% confluence, cells were washed with PBS and harvested with Versene (Life Technologies, Carlsbad, CA). The cells were counted and plated into 96-well microtiter plates coated with poly-D-Lys (Corning BioCoat) with 5,000 cells/well and thereafter incubated overnight in growth media. The next day the media was changed to assay buffer (DMEM without phenol red, supplemented with GlutaMAX, 10 mM HEPES, 1% ovalbumin and 0.1% Pluronic F-68) or to 100% plasma. In the absence of plasma, compounds were diluted in assay buffer. In assays tested with plasma, compounds were diluted in pure plasma. Buffer was removed from the plates and 50 μl of test compound dilutions was added to the plates followed by 50 μl of plasma or the same buffer used for compound dilution. The assay plates were incubated for 3 h in a 5% CO2 incubator at 37°C. The plates were then transferred to room temperature for 15 min and 100 μl Steadylite Plus reagent (PerkinElmer) was added to each well. The plates were shaken for 30 min at room temperature while protected from light after which luminescence was measured.
(§3) For the receptor binding assays, logIC50 values were calculated using non-linear regression analysis. The error estimation was reported as the 95% confidence interval. […] The calculations were performed in GraphPad Prism 6.4 (GraphPad, San Diego, CA) and error estimation was expressed as the 95% confidence interval. […] Averages, error estimation, ratios and plasma shifts were all calculated on logIC50 or logEC50 values and transformed to the anti-log values for reporting purposes.

Rat GCGR = target: T2, Rat GCGR (Rattus norvegicus, UniProt P30082); assay: as above; assay type: cell-based; details: Rat receptors, whole BHK cells, 0% plasma, 3 h 37°C, value (95% CI)
T2 construct: a plasmid encoding either the glucagon receptor or the GLP-1 receptor from the relevant species; expressed in transfected cells
Procedure: as §1, §2, §3

Mouse GCGR = target: T3, Mouse GCGR (Mus musculus, UniProt Q61606); assay: Receptor binding, SPA competitive binding assay; details: SPA competitive binding on BHK cell membranes, [125I]-glucagon tracer, 1% species specific plasma, 2 h 30°C; value (95% CI)
T3 construct: a plasmid encoding either the glucagon receptor or the GLP-1 receptor from the relevant species; expressed in transfected cells

Human GLP-1R = Human GLP-1R (Homo sapiens, UniProt P43220); assay: Receptor potency, CRE-luciferase functional assay in BHK cells; assay type: cell-based; details: Human receptors, whole BHK cells, 100% species-specific plasma, 3 h 37°C, value (95% CI)
Procedure: as §1, §2, §3

Human GCGR = target: T4, Human GCGR (Homo sapiens, UniProt P47871); assay: as above; assay type: cell-based; details: Human receptors, whole BHK cells, 3 h 37°C, value (95% CI)
T4 construct: a plasmid encoding either the glucagon receptor or the GLP-1 receptor from the relevant species; expressed in transfected cells
Procedure: as §1, §2, §3

DIO mice = assay: Subchronic effect on glucose tolerance in DIO mice (IPGTT at steady state); assay type: in vivo, mouse; details: after 3 weeks daily s.c. dosing, Cmax (5 h post dosing), p<0.001

T2 sequence (P30082 27-485): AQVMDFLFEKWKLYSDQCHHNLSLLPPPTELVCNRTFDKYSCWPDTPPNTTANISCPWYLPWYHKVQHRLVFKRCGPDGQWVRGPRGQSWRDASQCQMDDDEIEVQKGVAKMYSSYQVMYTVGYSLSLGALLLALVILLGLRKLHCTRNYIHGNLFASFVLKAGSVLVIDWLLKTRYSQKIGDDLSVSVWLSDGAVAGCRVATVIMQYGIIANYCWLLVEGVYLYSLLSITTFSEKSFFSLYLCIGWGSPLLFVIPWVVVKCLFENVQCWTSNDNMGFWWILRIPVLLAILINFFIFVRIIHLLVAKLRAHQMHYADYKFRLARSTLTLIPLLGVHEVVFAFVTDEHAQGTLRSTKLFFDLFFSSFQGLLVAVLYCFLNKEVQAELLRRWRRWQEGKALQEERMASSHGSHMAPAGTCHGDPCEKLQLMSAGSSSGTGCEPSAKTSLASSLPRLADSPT
T4 sequence (P47871 26-477): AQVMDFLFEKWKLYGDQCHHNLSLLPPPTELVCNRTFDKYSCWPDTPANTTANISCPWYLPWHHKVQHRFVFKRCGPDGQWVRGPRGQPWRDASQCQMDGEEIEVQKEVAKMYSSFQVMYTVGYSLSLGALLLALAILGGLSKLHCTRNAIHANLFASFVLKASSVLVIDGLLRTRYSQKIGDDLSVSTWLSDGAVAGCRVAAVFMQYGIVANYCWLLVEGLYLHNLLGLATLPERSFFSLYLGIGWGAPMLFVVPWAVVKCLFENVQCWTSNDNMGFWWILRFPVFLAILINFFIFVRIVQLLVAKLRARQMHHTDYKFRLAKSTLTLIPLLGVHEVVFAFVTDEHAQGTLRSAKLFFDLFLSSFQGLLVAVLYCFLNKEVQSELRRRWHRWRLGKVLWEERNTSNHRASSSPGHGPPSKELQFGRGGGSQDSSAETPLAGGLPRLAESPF
T3 sequence (Q61606 27-485): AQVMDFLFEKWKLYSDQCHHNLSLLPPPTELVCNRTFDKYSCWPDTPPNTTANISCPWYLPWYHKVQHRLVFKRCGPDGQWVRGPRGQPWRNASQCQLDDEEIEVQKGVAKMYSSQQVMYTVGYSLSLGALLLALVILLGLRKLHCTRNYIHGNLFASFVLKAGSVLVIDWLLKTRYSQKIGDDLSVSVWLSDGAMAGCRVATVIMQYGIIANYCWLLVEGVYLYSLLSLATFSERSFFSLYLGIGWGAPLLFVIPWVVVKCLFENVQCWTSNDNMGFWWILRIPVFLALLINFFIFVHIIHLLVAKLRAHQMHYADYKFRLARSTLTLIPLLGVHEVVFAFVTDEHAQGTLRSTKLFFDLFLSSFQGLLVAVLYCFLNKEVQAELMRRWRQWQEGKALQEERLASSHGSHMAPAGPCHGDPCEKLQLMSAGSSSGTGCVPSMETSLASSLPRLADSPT
Human GLP-1R, sequence (P43220 24-463): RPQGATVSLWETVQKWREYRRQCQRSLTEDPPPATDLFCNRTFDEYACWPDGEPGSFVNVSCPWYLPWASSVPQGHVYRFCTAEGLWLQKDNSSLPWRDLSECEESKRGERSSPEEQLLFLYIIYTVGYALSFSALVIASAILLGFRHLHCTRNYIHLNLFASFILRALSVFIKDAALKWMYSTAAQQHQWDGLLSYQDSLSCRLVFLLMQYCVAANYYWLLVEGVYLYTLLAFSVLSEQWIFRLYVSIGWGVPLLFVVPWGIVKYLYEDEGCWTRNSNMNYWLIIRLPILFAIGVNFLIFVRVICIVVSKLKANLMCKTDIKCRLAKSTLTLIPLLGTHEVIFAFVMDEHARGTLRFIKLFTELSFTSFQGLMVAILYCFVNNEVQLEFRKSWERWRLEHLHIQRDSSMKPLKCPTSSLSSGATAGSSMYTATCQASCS

pEC50 (Rat GLP-1R)	pEC50 (Rat GCGR)	pIC50 (Mouse GCGR)	pEC50 (Human GLP-1R)	EC50 (Human GCGR; GCGR EC50, pM (95% CI) 0% plasma, 0% plasma) [pM]	EC50 (Human GCGR; GCGR EC50, pM (95% CI) 100% plasma, 100% species-specific plasma) [pM]	Structure (SMILES)	Weight loss (DIO rats) [%]	Cumulative food intake (DIO rats)	Basal blood glucose vs vehicle (DIO mice)
11.52	7.45					CC(C)C[C@H](NC(=O)[C@H](CC(C)C)NC(=O)[C@H](Cc1c[nH]c2ccccc12)NC(=O)[C@H](CCC(N)=O)NC(=O)[C@@H](NC(=O)[C@H](Cc1ccccc1)NC(=O)[C@H](CCC(=O)O)NC(=O)[C@H](CCCNC(=N)N)NC(=O)[C@H](C)NC(=O)[C@H](C)NC(=O)[C@H](CCCNC(=N)N)NC(=O)[C@H](CO)NC(=O)[C@H](CC(=O)O)NC(=O)[C@H](CC(C)C)NC(=O)[C@H](Cc1ccc(O)cc1)NC(=O)[C@H](CCCCN)NC(=O)[C@H](CO)NC(=O)[C@H](CC(C)C)NC(=O)[C@H](CC(=O)O)NC(=O)[C@H](CO)NC(=O)[C@@H](NC(=O)[C@H](Cc1ccccc1)NC(=O)[C@@H](NC(=O)CNC(=O)[C@H](CCC(=O)O)NC(=O)C(C)(C)NC(=O)[C@@H](N)Cc1c[nH]cn1)[C@@H](C)O)[C@@H](C)O)C(C)C)C(=O)N[C@@H](CC(N)=O)C(=O)N[C@@H](CCCCNC(=O)CC[C@H](NC(=O)CC[C@H](NC(=O)COCCOCCNC(=O)COCCOCCNC(=O)CC[C@H](NC(=O)CCCCCCCCCCCCCCCCC(=O)O)C(=O)O)C(=O)O)C(=O)O)C(N)=O [GLP-1 reference] (H-H[Aib]EGTFTSDLSKYLDSRAAREFVQWLLNK([γGlu-γGlu-AEEA-AEEA-γGlu-C18 diacid])-NH2)	5	equal reduction	
	11.74	9.54	9.83	1.83	312	CC(C)C[C@H](NC(=O)[C@H](Cc1ccc(O)cc1)NC(=O)[C@H](CCCCN)NC(=O)[C@H](CO)NC(=O)[C@H](CC(C)C)NC(=O)[C@H](CC(=O)O)NC(=O)[C@H](CO)NC(=O)[C@@H](NC(=O)[C@H](Cc1ccccc1)NC(=O)[C@@H](NC(=O)CNC(=O)[C@H](CCC(N)=O)NC(=O)C(C)(C)NC(=O)[C@@H](N)Cc1c[nH]cn1)[C@@H](C)O)[C@@H](C)O)C(=O)N[C@@H](CCC(=O)O)C(=O)N[C@@H](CO)C(=O)N[C@@H](CCCCN)C(=O)N[C@@H](CCCNC(=N)N)C(=O)N[C@@H](C)C(=O)N[C@@H](CCCNC(=N)N)C(=O)N[C@@H](CCC(=O)O)C(=O)N[C@@H](Cc1ccccc1)C(=O)N[C@H](C(=O)N[C@@H](CCC(N)=O)C(=O)N[C@@H](Cc1c[nH]c2ccccc12)C(=O)N[C@@H](CC(C)C)C(=O)N[C@@H](CC(C)C)C(=O)N[C@@H](CCCCNC(=O)CC[C@H](NC(=O)CC[C@H](NC(=O)[C@H](CO)NC(=O)[C@H](CCC(=O)O)NC(=O)[C@H](CO)NC(=O)CC[C@H](NC(=O)CC[C@H](NC(=O)CCCCCCCCCCCCCCCCC(=O)O)C(=O)O)C(=O)O)C(=O)O)C(=O)O)C(=O)N[C@H](C(N)=O)[C@@H](C)O)C(C)C [NN1177] (H-H[Aib]QGTFTSDLSKYLESKRAREFVQWLLK([γGlu-γGlu-Ser-Glu-Ser-γGlu-γGlu-C18 diacid])T-NH2)	20	equal reduction	
						CC(C)C[C@H](NC(=O)[C@H](CC(=O)O)NC(=O)[C@H](CC(C)C)NC(=O)[C@H](Cc1ccc(O)cc1)NC(=O)[C@H](CCCCN)NC(=O)[C@H](CO)NC(=O)[C@H](CC(C)C)NC(=O)[C@H](CC(=O)O)NC(=O)[C@H](CO)NC(=O)[C@@H](NC(=O)[C@H](Cc1ccccc1)NC(=O)[C@@H](NC(=O)CNC(=O)[C@H](CCC(N)=O)NC(=O)C1(NC(=O)[C@@H](N)Cc2c[nH]cn2)CCC1)[C@@H](C)O)[C@@H](C)O)C(=O)N[C@@H](CCCNC(=N)N)C(=O)N[C@@H](CCCNC(=N)N)C(=O)N[C@@H](C)C(=O)N[C@@H](CCCNC(=N)N)C(=O)N[C@@H](CC(=O)O)C(=O)N[C@@H](Cc1ccccc1)C(=O)N[C@H](C(=O)N[C@@H](CCC(N)=O)C(=O)N[C@@H](Cc1c[nH]c2ccccc12)C(=O)N[C@@H](CC(C)C)C(=O)N[C@@H](CC(C)C)C(=O)N[C@@H](CCCCNC(=O)CC[C@H](NC(=O)CC[C@H](NC(=O)COCCOCCNC(=O)COCCOCCNC(=O)CC[C@H](NC(=O)CC[C@H](NC(=O)CCCCCCCCCCCCCCCCC(=O)O)C(=O)O)C(=O)O)C(=O)O)C(=O)O)C(=O)N[C@H](C(N)=O)[C@@H](C)O)C(C)C [NN1151] (H-H[Ac4c]QGTFTSDLSKYLDLRRARDFVQWLLK([γGlu-γGlu-AEEA-AEEA-γGlu-γGlu-C18 diacid])T-NH2)			improved
		7.85				CC[C@H](C)[C@H](NC(=O)[C@H](Cc1ccccc1)NC(=O)[C@H](CCC(=O)O)NC(=O)[C@H](CCCNC(=N)N)NC(=O)[C@H](C)NC(=O)[C@H](C)NC(=O)[C@H](CCC(N)=O)NC(=O)[C@H](CCC(=O)O)NC(=O)[C@H](CCC(=O)O)NC(=O)[C@H](CC(C)C)NC(=O)[C@H](Cc1ccc(O)cc1)NC(=O)[C@H](CCCCN)NC(=O)[C@H](CO)NC(=O)[C@@H](NC(=O)[C@H](CC(=O)O)NC(=O)[C@H](CO)NC(=O)[C@@H](NC(=O)[C@H](Cc1ccccc1)NC(=O)[C@@H](NC(=O)CNC(=O)[C@H](Cc1c[nH]cn1)NC(=O)C(C)(C)NC(=O)CCc1c[nH]cn1)[C@@H](C)O)[C@@H](C)O)C(C)C)C(=O)N[C@@H](C)C(=O)N[C@@H](Cc1c[nH]c2ccccc12)C(=O)N[C@@H](CC(C)C)C(=O)N[C@@H](CC(C)C)C(=O)N[C@@H](CCCCNC(=O)COCCOCCNC(=O)COCCOCCNC(=O)CC[C@H](NC(=O)CC[C@H](NC(=O)CCCCCCCCCCCCCCCCC(=O)O)C(=O)O)C(=O)O)C(=O)N[C@H](C(N)=O)[C@@H](C)O [NN1359] (Desaminohistidyl-[Aib]HGTFTSDVSKYLEEQAAREFIAWLLK([AEEA-AEEA-γGlu-γGlu-C18 diacid])T-NH2)			significantly improved
